In patent US20240270731A1, “[…]” (ALEBUND PHARMACEUTICALS (HONG KONG) LIMITED, priority 2021, published 2024):

What was measured:
[1] = tested on: uninephrectomied db/db mice; experiment: Diabetic nephropathy pharmacodynamic model (uninephrectomied db/db mice); conditions: Compound 2 treatment, oral once per day
Description: Housing temperature was maintained at 22-26° C. and humidity at 40%-60%. Mice were allowed to access food and water ad libitum. […] Buprenorphine was applied after surgery.
Two weeks after surgery, db/db mice were randomly assigned into 5 groups. Wild type mice were used for the control animals. […] Compounds were orally administrated once per day for 10 weeks.
At the 5th and 9th week after compound administration, mice were placed in metabolic cages for urine collection. Albumin level was measured for 24 hr albumin excretion calculation. At the 10th week after treatment, the animals were sacrificed for kidney dissection. The kidney was fixed in 10% neutral buffed formalin, then paraffin-embedded for histopathological analysis. Glomerulosclerosis was assessed by evaluating glomerular basement membrane, mesangial expansion, nodular sclerosis and glomerulosclerosis.
Graphpad 8.0 software was used for statistical analysis. The difference between the values were analyzed with one-way ANOVA. The difference between histopathological score was analyzed with Kruskal-Wallis nonparameter test.

[2] = tested on: rat model of hyperlipidemia induced by high cholesterol diet; experiment: Rat model of hyperlipidemia induced by high cholesterol diet (serum TG, NEFA); assay type: in vivo, Sprague-Dawley rats; conditions: for Serum TG / Serum NEFA: mean ± SD, n=6; for Serum TG and NEFA levels compared with the vehicle group: Day 8, both 0.2 mg/kg and 0.6 mg/kg
Text: On the day before the start of the administration (Day 0), the animals were divided into 7 groups based on body weights and serum indicators and were continually fed with the high-cholesterol diet. The treatment groups were orally dosed with either compound or vehicle while continuing the high-cholesterol diet for a total of 1 week. The animals were weighed daily before the treatment, and the compounds were given at 9:00-9:30 in the morning based on the body weight of the day.

[3] = 7-day repeated oral gavage, body weights of ICR mice; assay type: in vivo; conditions: for Weight Gain compared with Day 0: n=10
Text: After 3 days of acclimatization, ICR mice were grouped according to their body weights. The day of grouping is designated as Day 0. […] The animals were weighed and recorded daily.

[4] = tested on: db/db type 2 diabetes model; experiment: Pharmacodynamics study on the db/db type 2 diabetes model; conditions: for Average daily body weights compared with the vehicle group: Day 10 to Day 15, Compound 2 0.05, 0.2, 1 mg/kg; for Statistical difference (p) of the blood glucose level between treatment group and vehicle group: random blood glucose
Text: 45 db/db mice were evenly divided into 5 groups before the initiation of treatment based on the body weights, serum triglyceride (TG) levels, and random blood glucose levels.
All animals were weighed daily before each dosing and treated daily for 14 consecutive days.
All the data was imported into an Excel file and presented as Mean±SEM. Graphpad Prism 7.0 software was used for data statistical analysis by One-way or Two-way ANOVA, with P<0.05 as the criterion of significant differences.

[5] = tested on: rat model of unilateral ureteral obstruction; experiment: Renal injury in rat model of unilateral ureteral obstruction; conditions: 0.2 mg/kg oral daily, 14 treatment days
Description: Housing temperature was maintained at 20-26° C. and humidity at 40%-60%. Rats were fed with a standard chow and allowed to access food and water ad libitum.
The formulation was prepared twice a week.
Vehicle or compounds were administrated by orally gavage daily. Unilateral ureteral obstruction was performed on the second day of compound treatment. Animals in model group, reference group and compound group underwent urethral ligation under isoflurane anesthesia one hour after receiving compound administration. A flank incision was cut to expose the left ureter, and a 4-0 surgical suture was used to perform two-point ligation to achieve urethral obstruction. Ureter was cut between the two ligation points. Animals in the control group were subjected to the same surgical treatment except the ligation and cut.
Rats were sacrificed after 14 days' compound treatment. The obstructed kidney was weighed and collected for histology. The tissue samples were fixed with formalin, and then paraffin embedded. The embedded tissue was sectioned and stained with hematoxylin & eosin and Masson trichrome to assess kidney structure and fibrosis.
The multiple comparison was analyzed with the Kruskal-Wallis non-parameter test. The Dunn's test was used to compare the difference to the model group.

[6] = Day 0 (day before treatment), group later dosed 0.2 mg/kg oral QD x 7 days
[7] = Day 0 (day before treatment), group later dosed 0.6 mg/kg oral QD x 7 days
[8] = Day 8, 0.2 mg/kg oral QD x 7 days
[9] = Day 8, 0.6 mg/kg oral QD x 7 days
[10] = 0.2 mg/kg (Aleglitazar: Day 4 and Day 5; Compound 2: throughout the study)
[11] = 1 mg/kg (Aleglitazar: Day 6; Compound 2: Day 4 and 5; Compounds 4 and 10: Day 4 to Day 7)

[2H]C([2H])(Cc1nc(-c2ccccc2)oc1C)Oc1ccc(C[C@H](OC)C(=O)O)c2sccc12 (single isomer, unassigned) [Compound 2]
Reduction of urine albumin [1]: More than 50%
Serum TG [2, 6]: 4.27 ± 1.61 mmol/L
Serum TG [2, 7]: 4.11 ± 1.10 mmol/L
Serum NEFA [2, 8]: 431.50 ± 151.63 µmol/L
Serum TG [2, 8]: 1.71 ± 0.72 mmol/L
Serum NEFA [2, 9]: 444.33 ± 119.12 µmol/L
Serum TG [2, 9]: 1.86 ± 0.99 mmol/L
Daily average weight gain compared with the vehicle group [3, 10]: no significant difference
Daily average weight gain compared with the vehicle group [3, 11]: significantly higher
Weight Gain compared with Day 0 ([3]; Day 1, 0.2 mg/kg oral QD): 0.45 ± 0.28 g
Weight Gain compared with Day 0 ([3]; Day 1, 1 mg/kg oral QD): 0.4 ± 0.17 g
Weight Gain compared with Day 0 ([3]; Day 2, 0.2 mg/kg oral QD): 1.42 ± 0.22 g
Weight Gain compared with Day 0 ([3]; Day 2, 1 mg/kg oral QD): 1.57 ± 0.26 g
Weight Gain compared with Day 0 ([3]; Day 3, 0.2 mg/kg oral QD): 2.56 ± 0.23 g
Weight Gain compared with Day 0 ([3]; Day 3, 1 mg/kg oral QD): 2.71 ± 0.19 g
Weight Gain compared with Day 0 ([3]; Day 4, 0.2 mg/kg oral QD): 2.96 ± 0.23 g
Weight Gain compared with Day 0 ([3]; Day 4, 1 mg/kg oral QD): 3.61 ± 0.19 g
Weight Gain compared with Day 0 ([3]; Day 5, 0.2 mg/kg oral QD): 3.73 ± 0.34 g
Weight Gain compared with Day 0 ([3]; Day 5, 1 mg/kg oral QD): 3.96 ± 0.29 g
Weight Gain compared with Day 0 ([3]; Day 6, 0.2 mg/kg oral QD): 4.66 ± 0.39 g
Weight Gain compared with Day 0 ([3]; Day 6, 1 mg/kg oral QD): 4.84 ± 0.4 g
Weight Gain compared with Day 0 ([3]; Day 7, 0.2 mg/kg oral QD): 5.08 ± 0.42 g
Weight Gain compared with Day 0 ([3]; Day 7, 1 mg/kg oral QD): 5.44 ± 0.36 g
Average daily body weights compared with the vehicle group ([4]; Aleglitazar 0.2 mg/kg): significantly higher
Statistical difference (p) of the blood glucose level between OGTT treatment group and vehicle group ([4]; OGTT Day 14, 0 min, 0.05 mpk): p > 0.05
Statistical difference (p) of the blood glucose level between OGTT treatment group and vehicle group ([4]; OGTT Day 14, 0 min, 0.2 mpk): p < 0.01
Statistical difference (p) of the blood glucose level between OGTT treatment group and vehicle group ([4]; OGTT Day 14, 0 min, 1 mpk): p < 0.0001
Statistical difference (p) of the blood glucose level between OGTT treatment group and vehicle group ([4]; OGTT Day 14, 15 min, 0.05 mpk): p > 0.05
Statistical difference (p) of the blood glucose level between OGTT treatment group and vehicle group ([4]; OGTT Day 14, 15 min, 0.2 mpk): p > 0.05
Statistical difference (p) of the blood glucose level between OGTT treatment group and vehicle group ([4]; OGTT Day 14, 15 min, 1 mpk): p < 0.0001
Statistical difference (p) of the blood glucose level between OGTT treatment group and vehicle group ([4]; OGTT Day 14, 30 min, 0.05 mpk): p > 0.05
Statistical difference (p) of the blood glucose level between OGTT treatment group and vehicle group ([4]; OGTT Day 14, 30 min, 0.2 mpk): p > 0.05
Statistical difference (p) of the blood glucose level between OGTT treatment group and vehicle group ([4]; OGTT Day 14, 30 min, 1 mpk): p < 0.05
Statistical difference (p) of the blood glucose level between OGTT treatment group and vehicle group ([4]; OGTT Day 14, 60 min, 0.05 mpk): p > 0.05
Statistical difference (p) of the blood glucose level between OGTT treatment group and vehicle group ([4]; OGTT Day 14, 60 min, 0.2 mpk): p < 0.01
Statistical difference (p) of the blood glucose level between OGTT treatment group and vehicle group ([4]; OGTT Day 14, 60 min, 1 mpk): p < 0.0001
Statistical difference (p) of the blood glucose level between OGTT treatment group and vehicle group ([4]; OGTT Day 14, 120 min, 0.05 mpk): p > 0.05
Statistical difference (p) of the blood glucose level between OGTT treatment group and vehicle group ([4]; OGTT Day 14, 120 min, 0.2 mpk): p < 0.05
Statistical difference (p) of the blood glucose level between OGTT treatment group and vehicle group ([4]; OGTT Day 14, 120 min, 1 mpk): p < 0.001
Statistical difference (p) of the blood glucose level between treatment group and vehicle group ([4]; Day 0, 0.05 mpk): p > 0.05
Statistical difference (p) of the blood glucose level between treatment group and vehicle group ([4]; Day 0, 0.2 mpk): p > 0.05
Statistical difference (p) of the blood glucose level between treatment group and vehicle group ([4]; Day 0, 1 mpk): p > 0.05
Statistical difference (p) of the blood glucose level between treatment group and vehicle group ([4]; Day 7, 0.05 mpk): p > 0.05
Statistical difference (p) of the blood glucose level between treatment group and vehicle group ([4]; Day 7, 0.2 mpk): p > 0.05
Statistical difference (p) of the blood glucose level between treatment group and vehicle group ([4]; Day 7, 1 mpk): p < 0.05
Statistical difference (p) of the blood glucose level between treatment group and vehicle group ([4]; Day 14, 0.05 mpk): p > 0.05
Statistical difference (p) of the blood glucose level between treatment group and vehicle group ([4]; Day 14, 0.2 mpk): p < 0.05
Statistical difference (p) of the blood glucose level between treatment group and vehicle group ([4]; Day 14, 1 mpk): p < 0.0001

CO[C@@H](Cc1ccc(OCCc2nc(-c3ccccc3)oc2C)c2ccsc12)C(=O)O (single isomer, unassigned) [Compound 4]
Serum NEFA compared with Aleglitazar ([2]; 0.2 mg/kg, T-test, P<0.05): significantly reduce
Serum TG and NEFA levels compared with the vehicle group [2]: significantly reduce

[2H]c1c([2H])c([2H])c(-c2nc(CCOc3ccc(C[C@H](OC)C(=O)O)c4sccc34)c(C)o2)c([2H])c1[2H] (single isomer, unassigned) [Compound 4]
Serum TG [2, 6]: 4.22 ± 1.71 mmol/L
Serum TG [2, 7]: 4.00 ± 1.71 mmol/L
Serum NEFA [2, 8]: 490.33 ± 113.61 µmol/L
Serum TG [2, 8]: 2.46 ± 1.18 mmol/L
Serum NEFA [2, 9]: 347.83 ± 113.61 µmol/L
Serum TG [2, 9]: 1.93 ± 0.58 mmol/L
Daily average weight gain compared with the vehicle group [3, 11]: significantly higher
Weight Gain compared with Day 0 ([3]; Day 1, 1 mg/kg oral QD): 0.35 ± 0.24 g
Weight Gain compared with Day 0 ([3]; Day 2, 1 mg/kg oral QD): 1.45 ± 0.34 g
Weight Gain compared with Day 0 ([3]; Day 3, 1 mg/kg oral QD): 2.75 ± 0.41 g
Weight Gain compared with Day 0 ([3]; Day 4, 1 mg/kg oral QD): 3.71 ± 0.46 g
Weight Gain compared with Day 0 ([3]; Day 5, 1 mg/kg oral QD): 4.26 ± 0.47 g
Weight Gain compared with Day 0 ([3]; Day 6, 1 mg/kg oral QD): 5.36 ± 0.54 g
Weight Gain compared with Day 0 ([3]; Day 7, 1 mg/kg oral QD): 5.91 ± 0.56 g

[2H]c1cccc([2H])c1-c1nc(CC([2H])([2H])Oc2ccc(C[C@H](OC)C(=O)O)c3sccc23)c(C)o1 (single isomer, unassigned) [Compound 10]
Daily average weight gain compared with the vehicle group [3, 11]: significantly higher
Weight Gain compared with Day 0 ([3]; Day 1, 1 mg/kg oral QD): 0.34 ± 0.17 g
Weight Gain compared with Day 0 ([3]; Day 2, 1 mg/kg oral QD): 1.63 ± 0.41 g
Weight Gain compared with Day 0 ([3]; Day 3, 1 mg/kg oral QD): 2.96 ± 0.37 g
Weight Gain compared with Day 0 ([3]; Day 4, 1 mg/kg oral QD): 3.85 ± 0.38 g
Weight Gain compared with Day 0 ([3]; Day 5, 1 mg/kg oral QD): 4.59 ± 0.39 g
Weight Gain compared with Day 0 ([3]; Day 6, 1 mg/kg oral QD): 5.75 ± 0.39 g
Weight Gain compared with Day 0 ([3]; Day 7, 1 mg/kg oral QD): 6.11 ± 0.53 g

CO[C@@H](Cc1ccc(OCCc2nc(-c3ccccc3)oc2C)c2ccsc12)C(=O)O [Aleglitazar, aleglitazar, reference compound]
Serum TG [2, 6]: 4.24 ± 1.18 mmol/L
Serum TG [2, 7]: 4.09 ± 2.17 mmol/L
Serum NEFA [2, 8]: 706.00 ± 190.15 µmol/L
Serum TG [2, 8]: 2.86 ± 0.86 mmol/L
Serum NEFA [2, 9]: 327.83 ± 90.73 µmol/L
Serum TG [2, 9]: 1.47 ± 0.46 mmol/L
Serum TG and NEFA levels compared with the vehicle group [2]: significantly reduce
Daily average weight gain compared with the vehicle group [3, 10]: significantly higher
Daily average weight gain compared with the vehicle group [3, 11]: significantly higher
Weight Gain compared with Day 0 ([3]; Day 1, 0.2 mg/kg oral QD): 0.48 ± 0.27 g
Weight Gain compared with Day 0 ([3]; Day 2, 0.2 mg/kg oral QD): 1.66 ± 0.39 g
Weight Gain compared with Day 0 ([3]; Day 2, 1 mg/kg oral QD): 1.64 ± 0.26 g
Weight Gain compared with Day 0 ([3]; Day 3, 0.2 mg/kg oral QD): 2.62 ± 0.42 g
Weight Gain compared with Day 0 ([3]; Day 3, 1 mg/kg oral QD): 2.61 ± 0.51 g
Weight Gain compared with Day 0 ([3]; Day 4, 0.2 mg/kg oral QD): 3.50 ± 0.42 g
Weight Gain compared with Day 0 ([3]; Day 4, 1 mg/kg oral QD): 3.33 ± 0.54 g
Weight Gain compared with Day 0 ([3]; Day 5, 0.2 mg/kg oral QD): 3.92 ± 0.4 g
Weight Gain compared with Day 0 ([3]; Day 5, 1 mg/kg oral QD): 3.86 ± 0.49 g
Weight Gain compared with Day 0 ([3]; Day 6, 0.2 mg/kg oral QD): 4.81 ± 0.37 g
Weight Gain compared with Day 0 ([3]; Day 6, 1 mg/kg oral QD): 4.98 ± 0.52 g
Weight Gain compared with Day 0 ([3]; Day 7, 0.2 mg/kg oral QD): 5.39 ± 0.56 g
Weight Gain compared with Day 0 ([3]; Day 7, 1 mg/kg oral QD): 5.34 ± 0.50 g
Total score of renal focal lesions (infract, tubular dilation, tubular obstruction, fibrosis, necrosis) compared with model group [5]: did not achieve statistically significant improvement
Serum TG levels compared with the vehicle group ([4]; Day 6 and Day 12, Aleglitazar 0.2 mg/kg, Compound 2 at different dosages): significantly lower
Average daily body weights compared with the vehicle group ([4]; Aleglitazar 0.2 mg/kg): significantly higher
Statistical difference (p) of the blood glucose level between OGTT treatment group and vehicle group ([4]; OGTT Day 14, 0 min, 0.2 mpk): p < 0.001
Statistical difference (p) of the blood glucose level between OGTT treatment group and vehicle group ([4]; OGTT Day 14, 15 min, 0.2 mpk): p < 0.01
Statistical difference (p) of the blood glucose level between OGTT treatment group and vehicle group ([4]; OGTT Day 14, 30 min, 0.2 mpk): p > 0.05
Statistical difference (p) of the blood glucose level between OGTT treatment group and vehicle group ([4]; OGTT Day 14, 60 min, 0.2 mpk): p < 0.01
Statistical difference (p) of the blood glucose level between OGTT treatment group and vehicle group ([4]; OGTT Day 14, 120 min, 0.2 mpk): p < 0.01
Statistical difference (p) of the blood glucose level between treatment group and vehicle group ([4]; Day 0, 0.2 mpk): p > 0.05
Statistical difference (p) of the blood glucose level between treatment group and vehicle group ([4]; Day 7, 0.2 mpk): p < 0.05
Statistical difference (p) of the blood glucose level between treatment group and vehicle group ([4]; Day 14, 0.2 mpk): p < 0.01
